We go through ten compounds from patent EP1054892B1, “AZOLE PEPTIDOMIMETICS AS THROMBIN RECEPTOR ANTAGONISTS” (Ortho-McNeil Pharmaceutical, Inc., priority 1998, dated 1999).

Numbered stars: 1 amine (or outer) side, 2 acyl side, 3 side chain; on linkers, the order of the positions; unused ones are H or OH. Square brackets hold non-standard residues; d marks the D form. Peptide text beside a SMILES is read from it. Phe(4-F)ψ(2,4-Thz) = O=C(c1csc([C@H](Cc2ccc(F)cc2)N[*:1])n1)[*:2]; hArg = N=C(N)NCCCC[C@H](N)C(=O)O; Cha = N[C@@H](CC1CCCCC1)C(=O)O; Sar = CNCC(=O)O

Assay [1] deals with gel-filtered platelets. The assay can be described thus: In vitro inhibition of SFLLRN-NH2 (TRAP)-stimulated gel-filtered platelet aggregation. Type of assay: cell-based. The settings on record: agonist SFLLRN-NH2 (TRAP), gel-filtered human platelets.
Assay [2] has as its system gel-filtered platelets. The assay is described as follows: In vitro inhibition of thrombin-induced gel-filtered platelet aggregation. Type of assay: cell-based. The settings on record: agonist thrombin, gel-filtered human platelets, read-out: Platelet Aggregation** IC50 Thr*. The procedure: IN VITRO INHIBITION OF THROMBIN-INDUCED GEL-FILTERED PLATELET AGGREGATION ASSAY.
The percentage of platelet aggregation is calculated as an increase in light transmission of compound-treated platelet concentrate vs. control-treated platelet concentrate. Human blood is obtained from drug free, normal donors in tubes containing 0.13 M sodium citrate. Platelet rich plasma (PRP) is collected by centrifugation of whole blood at 200 x g for 10 min at 25°C. The PRP (5 mL) is gel filtered through Sepharose 2B (bed volume 50 mL), and the platelet count is adjusted to 2x10^7 platelets per sample. The following constituents are added to a siliconized cuvette: concentrated platelet filtrate and Tyrode's buffer (0.14 M NaCI, 0.0027 M KCI, 0.012 M NaHCO3, 0.76 mM Na2HPO4, 0.0055 M glucose, 2 mg/mL BSA and 5.0 mM HEPES @ pH 7.4) in an amount equal to 350 µl, 50 µl of 20 mM calcium and 50 µl of the test compound. Aggregation is monitored in a BIODATA aggregometer for the 3 min following the addition of agonist (thrombin 50 µl of 1 unit/mL).
The table contains IC50 values (µM) of the compounds in a thrombin receptor binding assay, and IC50 values (µM) against platelet aggregation stimulated by two agonists, thrombin or SFLLRN-NH2 (TRAP).
* µM ** Thrombin-induced aggregation of gel-filtered platelets in µM.

The target in assay [3] is T1, thrombin receptor (Homo sapiens, UniProt P25116).
T1 construct: CHRF membranes (Jones, Biochim. Biophys. Acta 1992, 1136, 272) are thawed from -70°C; endogenous in cells; host or cells: CHRF cell membranes
T1 sequence (P25116 22-425): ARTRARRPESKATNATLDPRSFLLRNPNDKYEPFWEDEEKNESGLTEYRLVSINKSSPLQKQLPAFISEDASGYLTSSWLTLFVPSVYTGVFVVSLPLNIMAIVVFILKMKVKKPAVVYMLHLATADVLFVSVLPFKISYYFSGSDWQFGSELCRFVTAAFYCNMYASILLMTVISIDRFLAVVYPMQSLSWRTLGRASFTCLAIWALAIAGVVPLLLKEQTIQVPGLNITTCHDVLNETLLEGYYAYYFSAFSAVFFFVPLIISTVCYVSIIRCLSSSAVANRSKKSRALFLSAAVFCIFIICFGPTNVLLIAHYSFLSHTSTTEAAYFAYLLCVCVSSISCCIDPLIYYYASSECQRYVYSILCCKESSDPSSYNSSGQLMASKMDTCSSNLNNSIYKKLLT
The assay is described as follows: In vitro thrombin receptor binding assay (CHRF membranes, tritiated 721-40). The settings on record: displacement of tritiated 721-40 (Ser-pFPhe-Har-Leu-Har-Lys-Tyr-NH2), read-out: Thr Receptor Binding IC50*. The procedure: IN VITRO THROMBIN RECEPTOR BINDING ASSAY.
CHRF membranes (Jones, Biochim. Biophys. Acta 1992, 1136, 272) are thawed from -70°C, centrifuged at maximum speed for 5 min, washed twice with binding buffer (50 mM HEPES containing 5 mM MgCl2 and 0.1% BSA), and re-suspended in binding buffer ([…]). 100 µl of membranes are added to the 24-Wallac plates and delivered to the Tomtech apparatus. In a typical experiment, 6 µl of samples (from a 125 µg/mL intermediary plate, 20%DMSO) and 44 µl buffer are delivered to the plates (final conc. of compounds is 3.7 µg/mL, 0.6% DMSO). Similarly, 6 µl 20%DMSO and 44 µl buffer are delivered to both column 1 (NSB) and column 12 (TB). 10 µl Ser-pFPhe-Har-Leu-Har-Lys-Tyr-NH2 (721-40; 500 µM in deionized water) is added to column 1.50 µl tritiated 721-40 (specific activity 46 Ci/mmol) is added to all the wells. The plates are mixed well for 20 seconds, incubated for 30 min, and then harvested with 10 mM HEPES/138 mM NaCl using the Skatron harvester. The filters (GF/C Brandel FPXLR 296) are presoaked 3 h in 0.5% polyethylenimine in HEPES/0.1 M N-acetylglucosamine) are set in saran wrap and dried for 3 min in the microwave, and placed in sample bags (Wallac 1450-432). 4.5 mL scintillation fluid (Wallac, Betaplate Scint 1205-440) is added. The bags are sealed, placed in filter cassettes (Wallac 1450-104), and analyzed on the microbeta counter. […]

A word on the IC50: it is the concentration needed to halve the response being measured. As to `CNCC(=O)N[C@@H](Cc1ccc(F)cc1)c1nc(C(=O)N[C@@H](CC2CCCCC2)C(=O)N[C@@H](CCCNC(=N)N)C(=O)NCc2ccccc2)co1` [Compound 1, 2-[1(S)-Sarcosineamido-2-(4-fluorophenyl)ethyl]oxazole-4-carboxy-cyclohexylalanyl-arginine benzylamide], the results for the IC50 in assay [1] (Platelet) and in assay [2] (Platelet) were 10 µM and 25 µM, respectively.
Turning to `N=C(N)NCCC[C@H](NC(=O)[C@H](CC1CCCCC1)NC(=O)c1coc([C@H](Cc2ccc(F)cc2)NC(=O)CCN)n1)C(=O)NCc1ccccc1` [Compound 2, 2-[1(S)-β-Alanineamido-2-(4-fluorophenyl)ethyl]oxazole-4-carboxycyclohexylalanyl-arginine benzylamide], the values for the IC50 in assay [1] (Platelet) and in assay [2] (Platelet) were 7 µM and 10 µM, respectively.
`CNCC(=O)N[C@@H](Cc1ccc(F)cc1)c1nc(C(=O)N[C@@H](CC2CCCCC2)C(=O)N[C@@H](CCCNC(=N)N)C(=O)NCCc2ccccc2)cs1` [Compound 3, 2-[1(S)-Sarcosineamido-2-(4-fluorophenyl)ethyl]thiazole-4-carboxycyclohexylalanyl-arginine phenethylamide]: the IC50 in assay [1] (Platelet) was determined as 0.6 µM; in assay [2] (Platelet) it was 12 µM.
Take `CNCC(=O)N[C@@H](Cc1ccc(F)cc1)c1nc(C(=O)N[C@@H](CC2CCCCC2)C(=O)N[C@@H](CCCCNC(=N)N)C(=O)N[C@@H](Cc2ccccc2)C(N)=O)cs1` [Compound 4] (H-[Sar][Phe(4-F)ψ(2,4-Thz)][Cha][hArg]F-NH2): the values for the 50% inhibitory concentration (IC50) in assay [2] (Platelet) and in assay [3] were 45 µM and 5 µM, respectively.
Regarding `CC[C@H](C)[C@H](N)C(=O)N[C@@H](Cc1ccc(F)cc1)c1nc(C(=O)N[C@@H](CC2CCCCC2)C(=O)N[C@@H](CCCNC(=N)N)C(=O)N[C@@H](Cc2ccccc2)C(N)=O)cs1` [Compound 5] (H-I[Phe(4-F)ψ(2,4-Thz)][Cha]RF-NH2), the IC50 is 9 µM in assay [1] (Platelet) and 43 µM in assay [2] (Platelet).
The matching figures for `CNCC(=O)N[C@@H](Cc1ccc(F)cc1)c1nc(C(=O)N[C@@H](CCCCN)C(=O)N[C@@H](CCCNC(=N)N)C(=O)NCCc2ccccc2)cs1` [Compound 6, 2-[1(S)-Sarcosineamido-2-(4-fluorophenyl)ethyl]thiazole-4-carboxy-lysyl-arginine phenethylamide]: 4 µM and 26 µM.
Regarding `CNCC(=O)N[C@@H](Cc1ccc(F)cc1)c1nc(C(=O)N[C@@H](CC2CCCCC2)C(=O)N[C@@H](CCCNC(=N)N)C(=O)NCc2ccccc2)c(C)o1` [Compound 7, 2-[1(S)-Sarcosineamido-2-(4-fluorophenyl)ethyl]-5-methyloxazole-4-carboxy-cyclohexylalanyl-arginine benzylamide], the IC50 is 22 µM in assay [1] (Platelet) and 19 µM in assay [2] (Platelet).
Turning to `Cc1oc(C(Cc2ccc(F)cc2)NC(=O)C(N)Cc2cn(Cc3ccccc3)cn2)nc1C(=O)NC(CC1CCCCC1)C(=O)NC(CCCNC(=N)N)C(=O)NCc1ccccc1` [Compound 8, 2-[1(S)-N(tau)-Benzyl-histidineamido-2-(4-fluorophenyl)ethyl]-5-methyloxazole-4-carboxy-cyclohexylalanyl-arginine benzylamide], the IC50 in assay [1] (Platelet) stood at 5 µM; in assay [2] (Platelet), 13 µM.
For the compound `CC(=O)N[C@@H](Cc1ccc(F)cc1)c1nc(C(=O)N[C@@H](CC2CCCCC2)C(=O)N[C@@H](CCCNC(=N)N)C(=O)NCc2ccccc2)c(C)o1` [Compound 9, 2-[1(S)-Acetamido-2-(4-fluorophenyl)ethyl]-5-methyloxazole-4-carboxy-cyclohexylalanyl-arginine benzylamide], the IC50 in assay [1] (Platelet) is 11 µM; in assay [2] (Platelet), 24 µM.
In the case of `Cc1oc([C@H](Cc2ccc(F)cc2)N(C)C)nc1C(=O)N[C@@H](CC1CCCCC1)C(=O)N[C@@H](CCCNC(=N)N)C(=O)NCc1ccccc1` [Compound 10, 2-[1(S)-N,N-Dimethyl-2-(4-fluorophenyl)ethyl]-5-methyloxazole-4-carboxy-cyclohexylalanyl-arginine benzylamide], the figures for the IC50 in assay [1] and in assay [2] were 17 µM and 11 µM, respectively.
